Measurements: ChEMBL document CHEMBL5360519, “Chemical similarities and differences among inhibitors of nitric oxide synthase, arginase and dimethylarginine dimethylaminohydrolase-1: Implications for the design of novel enzyme inhibitors modulating the nitric oxide pathway” (Bioorg Med Chem, 2022)
One block for each molecule: values may come before it.

How the values were obtained:
[1] = biological target: T1, N(G),N(G)-dimethylarginine dimethylaminohydrolase 1 (Homo sapiens, UniProt O94760); experiment: Inhibition of recombinant human DDAH1 expressed in HEK293 cells using ADMA as substrate preincubated for 5 mins
Nitric oxide synthase 3 [2] = biological target: T2, Nitric oxide synthase 3 (Homo sapiens, UniProt P29474); experiment: Inhibition of eNOS in human DLD-1 cells assessed as reduction of L-[14C]arginine to L-[14C]citrulline conversion; assay type: cell-based
T2 sequence (P29474 whole entry): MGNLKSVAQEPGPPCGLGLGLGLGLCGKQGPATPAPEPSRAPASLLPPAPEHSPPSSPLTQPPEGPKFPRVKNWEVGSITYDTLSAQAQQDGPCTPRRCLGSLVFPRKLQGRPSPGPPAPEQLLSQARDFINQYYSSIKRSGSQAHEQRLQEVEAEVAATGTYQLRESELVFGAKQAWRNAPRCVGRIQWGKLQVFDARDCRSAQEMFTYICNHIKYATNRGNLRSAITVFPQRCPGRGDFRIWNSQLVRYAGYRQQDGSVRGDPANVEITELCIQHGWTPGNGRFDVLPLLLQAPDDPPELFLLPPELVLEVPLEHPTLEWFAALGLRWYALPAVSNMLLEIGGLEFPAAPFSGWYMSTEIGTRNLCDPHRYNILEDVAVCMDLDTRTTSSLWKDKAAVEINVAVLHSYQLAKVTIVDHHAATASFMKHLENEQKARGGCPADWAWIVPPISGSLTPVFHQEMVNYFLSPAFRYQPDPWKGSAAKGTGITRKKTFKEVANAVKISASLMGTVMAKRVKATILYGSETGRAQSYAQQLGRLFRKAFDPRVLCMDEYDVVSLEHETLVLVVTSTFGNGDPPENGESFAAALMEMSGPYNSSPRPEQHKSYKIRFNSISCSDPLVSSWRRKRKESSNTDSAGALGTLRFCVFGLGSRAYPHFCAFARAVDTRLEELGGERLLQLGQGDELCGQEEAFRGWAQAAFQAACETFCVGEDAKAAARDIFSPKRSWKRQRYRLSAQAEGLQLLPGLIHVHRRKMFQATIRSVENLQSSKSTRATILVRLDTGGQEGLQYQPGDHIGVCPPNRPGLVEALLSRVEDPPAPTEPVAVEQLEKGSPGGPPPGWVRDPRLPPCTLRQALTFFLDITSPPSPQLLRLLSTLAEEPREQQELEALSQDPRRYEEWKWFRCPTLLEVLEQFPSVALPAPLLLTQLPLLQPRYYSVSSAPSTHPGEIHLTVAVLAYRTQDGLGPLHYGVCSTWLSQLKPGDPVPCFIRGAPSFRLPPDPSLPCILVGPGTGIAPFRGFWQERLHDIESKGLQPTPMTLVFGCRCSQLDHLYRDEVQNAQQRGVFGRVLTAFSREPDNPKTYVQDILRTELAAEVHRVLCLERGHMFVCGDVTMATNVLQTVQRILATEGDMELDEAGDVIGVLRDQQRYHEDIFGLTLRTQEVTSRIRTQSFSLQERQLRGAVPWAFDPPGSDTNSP

Nitric oxide synthase 1 [3] = biological target: T3, Nitric oxide synthase 1 (Homo sapiens, UniProt P29475); experiment: Inhibition of nNOS in human DLD-1 cells assessed as reduction of L-[14C]arginine to L-[14C]citrulline conversion; assay type: cell-based
[4] = biological target: T4, Nitric oxide synthase, inducible (Homo sapiens, UniProt P35228); experiment: Inhibition of iNOS in human DLD-1 cells assessed as reduction of L-[14C]arginine to L-[14C]citrulline conversion; assay type: cell-based
[5] = biological target: T4, Nitric oxide synthase, inducible; experiment: Inhibition of human iNOS expressed in baculovirus infected Spodoptera frugiperda cell using L-arginine as substrate preincubated for 15 mins followed by substrate addition measured after 15 mins by oxyhaemoglobin assay
Nitric oxide synthase 1 [6] = biological target: T3, Nitric oxide synthase 1; experiment: Inhibition of human nNOS expressed in baculovirus infected Spodoptera frugiperda cell using L-arginine as substrate preincubated for 15 mins followed by substrate addition measured after 15 mins by oxyhaemoglobin assay
Nitric oxide synthase 3 [7] = biological target: T2, Nitric oxide synthase 3; experiment: Inhibition of human eNOS expressed in baculovirus infected Spodoptera frugiperda cell using L-arginine as substrate preincubated for 15 mins followed by substrate addition measured after 15 mins by oxyhaemoglobin assay
Nitric oxide synthase 3 [8] = biological target: T5, Nitric oxide synthase 3 (Bos taurus, UniProt P29473); experiment: Inhibition of bovine eNOS
T5 sequence (P29473 whole entry): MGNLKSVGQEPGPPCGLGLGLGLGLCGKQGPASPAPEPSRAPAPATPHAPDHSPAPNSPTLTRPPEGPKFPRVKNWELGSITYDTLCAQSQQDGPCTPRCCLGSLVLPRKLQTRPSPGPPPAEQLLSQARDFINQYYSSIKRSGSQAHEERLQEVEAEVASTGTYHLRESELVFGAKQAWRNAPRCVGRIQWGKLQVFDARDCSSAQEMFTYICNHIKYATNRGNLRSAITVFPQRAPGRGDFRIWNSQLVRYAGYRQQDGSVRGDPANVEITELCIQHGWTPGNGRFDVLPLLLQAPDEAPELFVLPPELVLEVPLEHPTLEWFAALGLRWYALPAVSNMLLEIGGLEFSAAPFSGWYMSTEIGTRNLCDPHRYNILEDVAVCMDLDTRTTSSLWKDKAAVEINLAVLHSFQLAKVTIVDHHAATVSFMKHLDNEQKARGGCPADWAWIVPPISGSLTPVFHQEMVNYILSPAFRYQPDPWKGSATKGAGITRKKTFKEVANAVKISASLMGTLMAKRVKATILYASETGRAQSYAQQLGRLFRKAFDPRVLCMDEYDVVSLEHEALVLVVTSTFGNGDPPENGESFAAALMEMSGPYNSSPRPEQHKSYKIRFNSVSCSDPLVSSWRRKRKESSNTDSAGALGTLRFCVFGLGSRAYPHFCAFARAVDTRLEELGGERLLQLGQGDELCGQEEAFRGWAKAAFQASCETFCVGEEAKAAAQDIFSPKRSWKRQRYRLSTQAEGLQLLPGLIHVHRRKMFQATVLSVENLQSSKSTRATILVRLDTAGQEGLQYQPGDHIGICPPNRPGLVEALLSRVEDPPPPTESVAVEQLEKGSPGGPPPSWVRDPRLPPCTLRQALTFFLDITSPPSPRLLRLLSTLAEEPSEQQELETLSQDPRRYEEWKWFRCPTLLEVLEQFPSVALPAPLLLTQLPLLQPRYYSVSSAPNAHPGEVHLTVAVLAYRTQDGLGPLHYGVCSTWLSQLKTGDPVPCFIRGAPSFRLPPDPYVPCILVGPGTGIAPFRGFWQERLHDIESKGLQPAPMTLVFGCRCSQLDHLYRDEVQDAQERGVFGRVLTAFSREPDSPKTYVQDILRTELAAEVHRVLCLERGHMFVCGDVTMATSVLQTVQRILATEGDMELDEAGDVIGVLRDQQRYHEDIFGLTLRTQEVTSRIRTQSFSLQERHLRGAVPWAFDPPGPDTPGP

[9] = Inhibition of bovine nNOS; set-up: species or system Bos taurus
[10] = biological target: T6, Nitric oxide synthase, inducible (Mus musculus, UniProt P29477); experiment: Inhibition of mouse iNOS
T6 sequence (P29477 whole entry): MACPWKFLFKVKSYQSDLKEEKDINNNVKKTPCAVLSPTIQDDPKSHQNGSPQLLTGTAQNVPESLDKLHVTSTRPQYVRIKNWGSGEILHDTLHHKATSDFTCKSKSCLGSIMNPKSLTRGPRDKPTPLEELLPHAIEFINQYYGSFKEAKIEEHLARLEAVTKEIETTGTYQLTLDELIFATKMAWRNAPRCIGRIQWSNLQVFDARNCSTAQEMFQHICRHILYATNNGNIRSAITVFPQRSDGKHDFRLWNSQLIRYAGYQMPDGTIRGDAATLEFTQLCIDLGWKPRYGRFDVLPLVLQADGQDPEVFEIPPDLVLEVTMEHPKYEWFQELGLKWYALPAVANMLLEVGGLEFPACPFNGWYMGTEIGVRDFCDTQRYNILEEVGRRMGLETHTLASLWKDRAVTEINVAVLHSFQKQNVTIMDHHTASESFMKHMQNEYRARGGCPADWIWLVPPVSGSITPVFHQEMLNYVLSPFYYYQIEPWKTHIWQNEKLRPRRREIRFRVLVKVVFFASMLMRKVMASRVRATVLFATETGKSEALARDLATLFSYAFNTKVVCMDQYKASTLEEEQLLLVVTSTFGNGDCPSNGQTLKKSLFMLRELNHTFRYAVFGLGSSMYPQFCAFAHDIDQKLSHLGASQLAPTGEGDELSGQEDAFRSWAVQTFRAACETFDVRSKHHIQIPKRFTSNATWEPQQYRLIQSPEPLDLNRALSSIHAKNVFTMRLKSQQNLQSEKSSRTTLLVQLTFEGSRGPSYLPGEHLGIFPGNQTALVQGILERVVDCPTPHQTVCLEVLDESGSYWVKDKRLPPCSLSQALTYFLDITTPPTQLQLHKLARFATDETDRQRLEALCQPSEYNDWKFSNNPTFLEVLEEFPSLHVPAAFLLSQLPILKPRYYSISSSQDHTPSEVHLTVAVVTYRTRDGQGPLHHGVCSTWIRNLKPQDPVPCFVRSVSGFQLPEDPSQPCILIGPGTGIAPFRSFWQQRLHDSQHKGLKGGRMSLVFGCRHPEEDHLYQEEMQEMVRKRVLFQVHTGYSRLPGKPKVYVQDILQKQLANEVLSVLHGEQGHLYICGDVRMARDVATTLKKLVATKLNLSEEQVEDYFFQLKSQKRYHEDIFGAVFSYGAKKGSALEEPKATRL

[11] = biological target: T4, Nitric oxide synthase, inducible; experiment: Inhibition of human iNOS
Homo sapiens = organism: Homo sapiens; experiment: Selectivity index, ratio of IC50 for human eNOS to IC50 for human iNOS
Nitric oxide synthase 3 [12] = biological target: T2, Nitric oxide synthase 3
Nitric oxide synthase 1 [13] = biological target: T3, Nitric oxide synthase 1; experiment: Inhibition of human nNOS
[14] = biological target: T1, N(G),N(G)-dimethylarginine dimethylaminohydrolase 1; experiment: Inhibition of recombinant human DDAH1 expressed in HEK293 cells using ADMA as substrate assessed as inhibition constant preincubated for 5 mins
[15] = biological target: T4, Nitric oxide synthase, inducible; experiment: Inhibition of human iNOS assessed as inhibition constant
Nitric oxide synthase 1 [16] = biological target: Nitric oxide synthase 1 (Rattus norvegicus, UniProt P29476); experiment: Inhibition of rat brain nNOS expressed in baculovirus-infected Sf9 cells […] assessed as reduction of [3H]-arginine to [3H]-citrulline conversion
Nitric oxide synthase 1 (Rattus norvegicus, UniProt P29476), sequence (P29476 whole entry): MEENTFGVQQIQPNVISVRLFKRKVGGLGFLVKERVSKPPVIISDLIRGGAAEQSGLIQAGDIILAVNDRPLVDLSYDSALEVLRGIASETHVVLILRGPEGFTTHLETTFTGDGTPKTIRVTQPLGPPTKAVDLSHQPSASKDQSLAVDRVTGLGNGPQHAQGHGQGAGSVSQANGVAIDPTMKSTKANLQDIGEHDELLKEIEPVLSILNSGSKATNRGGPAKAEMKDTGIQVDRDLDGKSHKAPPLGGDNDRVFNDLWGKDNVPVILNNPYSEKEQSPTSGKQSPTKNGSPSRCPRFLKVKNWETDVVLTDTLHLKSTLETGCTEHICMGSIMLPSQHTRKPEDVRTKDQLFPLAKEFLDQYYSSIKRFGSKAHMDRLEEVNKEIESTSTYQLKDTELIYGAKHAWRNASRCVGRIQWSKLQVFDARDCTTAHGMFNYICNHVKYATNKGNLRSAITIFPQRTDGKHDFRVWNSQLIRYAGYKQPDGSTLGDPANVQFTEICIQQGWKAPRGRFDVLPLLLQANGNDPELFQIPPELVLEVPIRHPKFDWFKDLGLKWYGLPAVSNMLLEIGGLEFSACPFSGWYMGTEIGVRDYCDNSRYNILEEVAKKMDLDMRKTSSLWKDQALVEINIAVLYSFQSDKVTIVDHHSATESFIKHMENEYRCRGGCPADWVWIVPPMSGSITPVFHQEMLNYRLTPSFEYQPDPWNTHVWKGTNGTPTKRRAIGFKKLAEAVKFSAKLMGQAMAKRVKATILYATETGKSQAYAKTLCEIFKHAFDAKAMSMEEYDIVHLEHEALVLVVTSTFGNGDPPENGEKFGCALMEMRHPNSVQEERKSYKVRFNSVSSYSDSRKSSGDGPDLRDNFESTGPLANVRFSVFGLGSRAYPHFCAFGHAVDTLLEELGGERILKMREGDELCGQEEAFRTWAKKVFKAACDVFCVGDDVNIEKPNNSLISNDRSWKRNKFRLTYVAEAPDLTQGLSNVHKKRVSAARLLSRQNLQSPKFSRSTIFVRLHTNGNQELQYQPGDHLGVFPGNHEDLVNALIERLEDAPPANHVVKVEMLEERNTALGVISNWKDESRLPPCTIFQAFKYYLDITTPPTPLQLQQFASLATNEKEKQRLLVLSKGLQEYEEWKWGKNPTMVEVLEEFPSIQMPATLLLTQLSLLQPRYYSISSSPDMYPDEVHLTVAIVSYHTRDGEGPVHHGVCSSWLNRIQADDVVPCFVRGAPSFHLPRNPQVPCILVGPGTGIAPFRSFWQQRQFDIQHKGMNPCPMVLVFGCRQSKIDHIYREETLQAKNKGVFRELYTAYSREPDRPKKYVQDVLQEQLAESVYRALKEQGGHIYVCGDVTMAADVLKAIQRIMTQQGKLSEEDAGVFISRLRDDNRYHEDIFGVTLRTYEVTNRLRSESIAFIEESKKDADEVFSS

T1 sequence (O94760 whole entry): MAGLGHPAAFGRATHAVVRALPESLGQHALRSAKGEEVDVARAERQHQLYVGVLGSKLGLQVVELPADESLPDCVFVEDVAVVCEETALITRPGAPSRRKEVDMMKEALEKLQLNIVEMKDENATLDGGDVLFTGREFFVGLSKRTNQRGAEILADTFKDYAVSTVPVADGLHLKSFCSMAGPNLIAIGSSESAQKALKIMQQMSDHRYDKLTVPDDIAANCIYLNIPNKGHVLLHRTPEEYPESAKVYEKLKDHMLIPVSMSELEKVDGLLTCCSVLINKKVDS
T3 sequence (P29475 whole entry): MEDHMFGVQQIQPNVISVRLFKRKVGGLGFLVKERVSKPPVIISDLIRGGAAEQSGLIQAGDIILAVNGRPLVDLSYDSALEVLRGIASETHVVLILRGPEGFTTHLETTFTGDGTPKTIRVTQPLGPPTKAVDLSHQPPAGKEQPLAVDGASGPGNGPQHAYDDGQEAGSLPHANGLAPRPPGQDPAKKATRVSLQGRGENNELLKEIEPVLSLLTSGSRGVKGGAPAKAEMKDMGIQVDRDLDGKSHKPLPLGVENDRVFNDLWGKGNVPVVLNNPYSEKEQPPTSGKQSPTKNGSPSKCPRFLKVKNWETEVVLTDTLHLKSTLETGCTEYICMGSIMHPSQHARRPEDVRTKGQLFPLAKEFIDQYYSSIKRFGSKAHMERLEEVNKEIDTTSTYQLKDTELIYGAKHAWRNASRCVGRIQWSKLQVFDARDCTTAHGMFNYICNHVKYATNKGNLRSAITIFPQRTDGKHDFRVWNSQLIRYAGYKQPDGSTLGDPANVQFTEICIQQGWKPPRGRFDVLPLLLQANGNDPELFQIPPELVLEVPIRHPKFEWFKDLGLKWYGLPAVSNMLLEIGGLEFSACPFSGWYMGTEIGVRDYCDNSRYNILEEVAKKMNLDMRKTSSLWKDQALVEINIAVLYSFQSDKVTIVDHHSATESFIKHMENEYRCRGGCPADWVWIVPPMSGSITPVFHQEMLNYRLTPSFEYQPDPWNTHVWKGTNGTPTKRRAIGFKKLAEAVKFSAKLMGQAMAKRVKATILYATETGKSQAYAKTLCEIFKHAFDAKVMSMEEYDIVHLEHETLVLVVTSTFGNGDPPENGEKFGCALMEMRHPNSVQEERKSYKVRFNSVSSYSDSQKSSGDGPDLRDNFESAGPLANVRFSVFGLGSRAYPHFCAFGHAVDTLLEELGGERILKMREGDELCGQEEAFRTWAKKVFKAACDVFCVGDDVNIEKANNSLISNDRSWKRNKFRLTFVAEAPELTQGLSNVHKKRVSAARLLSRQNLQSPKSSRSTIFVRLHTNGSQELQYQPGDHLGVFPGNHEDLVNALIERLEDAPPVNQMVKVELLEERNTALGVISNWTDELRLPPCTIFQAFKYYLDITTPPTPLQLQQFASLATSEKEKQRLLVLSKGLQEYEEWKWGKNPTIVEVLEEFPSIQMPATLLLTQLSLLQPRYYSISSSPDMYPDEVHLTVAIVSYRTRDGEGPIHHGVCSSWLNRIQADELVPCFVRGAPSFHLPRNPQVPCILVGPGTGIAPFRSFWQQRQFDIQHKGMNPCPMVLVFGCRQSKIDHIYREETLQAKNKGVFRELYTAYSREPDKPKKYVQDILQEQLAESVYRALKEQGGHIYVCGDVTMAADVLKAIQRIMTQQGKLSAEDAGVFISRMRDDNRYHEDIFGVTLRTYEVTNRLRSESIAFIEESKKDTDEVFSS
T4 sequence (P35228 whole entry): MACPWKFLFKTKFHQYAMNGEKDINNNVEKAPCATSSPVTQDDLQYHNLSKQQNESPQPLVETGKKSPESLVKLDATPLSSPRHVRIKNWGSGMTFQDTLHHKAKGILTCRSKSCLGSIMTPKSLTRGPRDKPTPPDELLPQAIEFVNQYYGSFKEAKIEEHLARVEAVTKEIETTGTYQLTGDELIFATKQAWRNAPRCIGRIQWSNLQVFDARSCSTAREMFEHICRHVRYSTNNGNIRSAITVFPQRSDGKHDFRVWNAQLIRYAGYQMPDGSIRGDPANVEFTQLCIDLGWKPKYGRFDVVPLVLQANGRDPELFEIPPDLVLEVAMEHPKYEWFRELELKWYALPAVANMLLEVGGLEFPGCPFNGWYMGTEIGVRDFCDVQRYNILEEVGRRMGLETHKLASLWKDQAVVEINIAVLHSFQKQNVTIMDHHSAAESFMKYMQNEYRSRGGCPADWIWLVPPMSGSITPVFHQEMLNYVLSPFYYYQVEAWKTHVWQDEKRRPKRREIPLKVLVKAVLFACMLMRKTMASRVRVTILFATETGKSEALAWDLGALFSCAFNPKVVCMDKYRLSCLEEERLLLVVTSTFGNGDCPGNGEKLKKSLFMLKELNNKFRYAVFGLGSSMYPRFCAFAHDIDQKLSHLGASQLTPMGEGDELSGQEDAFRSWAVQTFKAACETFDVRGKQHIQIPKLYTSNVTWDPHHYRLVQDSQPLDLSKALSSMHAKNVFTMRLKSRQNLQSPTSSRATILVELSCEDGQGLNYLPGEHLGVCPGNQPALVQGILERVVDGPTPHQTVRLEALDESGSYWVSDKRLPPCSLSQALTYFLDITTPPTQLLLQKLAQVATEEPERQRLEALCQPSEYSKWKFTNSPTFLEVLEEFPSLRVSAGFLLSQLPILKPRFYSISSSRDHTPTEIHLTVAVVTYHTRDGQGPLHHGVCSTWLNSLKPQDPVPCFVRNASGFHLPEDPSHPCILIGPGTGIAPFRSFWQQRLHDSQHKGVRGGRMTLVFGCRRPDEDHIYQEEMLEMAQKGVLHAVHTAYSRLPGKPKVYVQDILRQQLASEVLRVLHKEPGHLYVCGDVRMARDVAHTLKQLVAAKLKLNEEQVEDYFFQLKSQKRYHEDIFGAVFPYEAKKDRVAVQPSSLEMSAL

- IC50 [1]: 131 µM
SMILES: COCCNC(=N)NCCC[C@H](N)C(=O)NO

- Ki (Nitric oxide synthase 3 [2]): 9 µM
- Ki (Nitric oxide synthase 1 [3]): 0.037 µM
- Ki [4]: 0.047 µM
SMILES: N=C(N)SCCc1cccc(CCSC(=N)N)c1

- IC50 [5]: 2.19 µM
- IC50 (Nitric oxide synthase 1 [6]): 177 µM
- IC50 (Nitric oxide synthase 3 [7]): 177 µM
SMILES: CC(=N)NCCSCC[C@H](N)C(=O)O [GW-274150]

- Ki (Nitric oxide synthase 3 [2]): 23 µM
- Ki (Nitric oxide synthase 1 [3]): 0.63 µM
- Ki [4]: 5.6 µM
SMILES: N=C(N)SCc1ccccc1 [BENZYL CARBAMIMIDOTHIOATE]

- Ki (Nitric oxide synthase 3 [2]): 0.022 µM
- Ki (Nitric oxide synthase 1 [3]): 30 µM
- Ki [4]: 0.009 µM
SMILES: CC(C)SC(=N)N

SMILES: N=C(NN)NO
- IC50 (Nitric oxide synthase 3 [8]): 23 µM
- IC50 [9]: 17 µM
- IC50 [10]: 23 µM

- IC50 [11]: 12 µM
- Ratio IC50 (Homo sapiens): > 700
- IC50 (Nitric oxide synthase 3 [12]): 8420 µM
- IC50 (Nitric oxide synthase 1 [13]): 150 µM
SMILES: CC(=N)NCCCC[C@H](N)C(O)CO (stereo partly drawn)

- IC50 [1]: 18 µM
- Ki [14]: 7 µM
SMILES: COCCNC(=N)NCCC[C@H](N)c1noc(=O)[nH]1

- IC50 [1]: 230 µM
SMILES: COCCNC(=N)NCCC[C@H](N)C(=O)NOC

SMILES: COC(=O)[C@@H](N)CCCNC(=N)N[N+](=O)[O-] [L-NAME]
- Ki [15]: 70 µM
- IC50 (Nitric oxide synthase 1 [16]): 70 µM

- Ki (Nitric oxide synthase 3 [2]): 0.67 µM
- Ki (Nitric oxide synthase 1 [3]): 0.029 µM
- Ki [4]: 0.24 µM
SMILES: CCCSC(=N)N
